Experimental data taken from US9657059B2, “Immune system modulators” (Canimguide Therapeutics AB, priority 2013, dated 2017).

Key:
[1] = tested on: Artificial Cell Surface (ACS): biotinylated cell surface proteins of PBMCs; assay: Adsorption of enzyme-fragmented dHSA peptides by artificial cell surface (ACS) column, MALDI-TOF; assay type: binding, human
Experimental: An artificial cell surface (ACS) was prepared by selectively biotinylating cell surface structures of PBMCs and after lysing the cells binding the biotinylated proteins to streptavidin columns (see Example 17 for further description of the ACS). The mixture of peptides obtained after trypsination was adsorbed by ACS and the binding peptides were identified by comparing adsorbed and unabsorbed peptide solutions using the MALDI TOF ms technique. Based on their degree of binding and their spatial relation to previously identified immunoregulatory structures, four new peptides were selected to be synthesized and investigated for their immunoregulatory activity, primarily the effect on the proliferative response to IL-2.
First, biotinylated cell surface proteins were prepared. Buffy coats generated from 450 ml blood each were collected from 4 healthy donors. Erythrocytes were removed by sedimentation on 2% dextran T500 solution (Amersham Pharmacia Biotech AB, Uppsala Sweden) in 0.9% NaCl. Mononuclear cells (PBMC) were then isolated by Ficoll-Paque Plus (GE Healthcare BioscienceAB Sweden) density gradient centrifugation. The PBMCs were then suspended in phosphate buffered saline (PBS) containing Ca and Mg (GIBCO) at a concentration of 10×10^6/ml. EZ Link Sulfo-NHS-biotin (Pierce USA) was added at a final concentration of 0.2 mg/ml and the mixture incubated on a shaker at room temperature for 10 min. Excess biotin was then removed by washing the PBMC in PBS. Biotinylated PBMC were then lysed by adding 1.0 ml ice-cold lysing buffer (50 mM Tris-HCL, pH 7.5, with 0.15 MNaCl, 5 mM MgCl2 containing 100 mM Octyl glucoside and 1 mM Phenylmethylsulfonyl fluoride) per 2×10^7 pelleted cells with gentle shaking, then incubated for 30 min. on ice. Debris was removed by centrifugation at 5000×g at 4° C. for 10 min and the supernatants were collected and pooled from all four donors. The lysate was then stored at −70° C. in polypropylene plastic tubes.
This amount of lysate corresponds to 36×10^7 mononuclear cells. It was added to a 1 ml Hitrap Streptavidin HP affinity column (Amersham Biosciences). To block possible remaining free biotin, 5 ml of 0.1 M glycine (Sigma) was added to the column. Unsaturated streptavidin on the column was then reacted with 150 ug biotin (Sigma) in binding buffer. The column was carefully washed with PBS and stored in PBS with 0.1% NaN3 at 4° C. until use.
27 ml biotinylated cell lysate in binding buffer (corresponding to 54×10^7 mononuclear cells) was added to 1.5 ml washed Streptavidin Sepharose HP (Amersham Biosciences). To block possible remaining free biotin, 25 ml of 0.1 M glycine (Sigma) was added to the Streptavidin Sepharose. Unsaturated streptavidin was then reacted with 225 ug biotin (Sigma) in binding buffer. The Streptavidin Sepharose was carefully washed in PBS. One ml of the biotinylated cell lysate coupled Streptavidin Sepharose was then packed in an empty column (Tricorn Empty High Performance Column, Amersham Bioscience) and washed with phosphate buffered saline (PBS) containing Ca^2+ and Mg^2+ (GIBCO).
Digestion with trypsin or ASP-N was performed as follows. Freeze dried dHSA (0.5 mg) was reconstituted in 25 mM NH4HCO3, pH 8, containing […] sequencing grade modified trypsin (Promega Corporation, WI) or […] Endoproteinase ASP-N(Sigma) and incubated at 37° C. overnight. To remove unfragmented albumin and enzyme, the sample was ultra filtered through an Amicon Ultra 4 (mw cut-off of 5000) or a Centriplus (mw cut-off 10000) centrifugal filter (Millipore AB, Solna, Sweden). The filtrate, containing fragmented dHSA without enzymes, was collected and diluted with PBS with Ca and Mg (GIBCO).
dHSA was trypsinated, and the mixture of peptides obtained after trypsination was adsorbed by ACS. Two ml of enzyme-fragmented dHSA in PBS, corresponding to a total of 0.2 mg protein, was passaged over the ACS column. […]

immune cells = assay: Binding of albumin fragments to immune cells on the Artificial Cell Surface column (ACS), MALDI-TOF; design: species or system human
Experimental: The existence of albumin sequences having neo-structures that bind to immune cells was identified using a human ex vivo model based on affinity chromatography over an “Artificial Cell Surface Column” (ACS). The effect of different albumin fragments on IL-2 induced proliferation of human immune cells (PBMCs) was analyzed in the ACS system (see Example 9). Briefly, PBMCs were cultured for seven days in the presence of IL-2 and the various synthetically prepared albumin fragments. Proliferation was measured as incorporation of ^3H thymidine during the final 18 hours.
Some of these fragments can have immunomodulatory activity similar to P3028, can bind to immune cells similar to P3028, and/or can bind to immunomodulatory antibodies that recognized P3028. […] Table 1 provides a listing of trypsin-generated fragments of albumin, which bind to immune cells in the ACS system, as detected by MALDI-TOF analysis.
[…] Again, the immune cell binding peptides were identified by comparing adsorbed and unadsorbed peptide solutions using the MALDI TOF technique.

[2] = Asp-N-generated albumin fragments
[3] = Asp-N-generated fragments of denatured human serum albumin, MALDI TOF
[4] = trypsin-generated albumin fragments
[5] = trypsin-generated albumin fragments, MALDI-TOF

Substance	Percent Absorbed [1, 2]	Percent Absorbed (immune cells; [3])	Percent Absorbed [1, 4]	Percent Absorbed (immune cells; [5])
218 (DDKETCFAEEGKKLVAASQAALGL; listed as Homo sapiens) [compound 218]	100%	100%	–	–
199 (FQNALLVR; listed as Homo sapiens) [compound 199]	–	–	41%	41%
197 (VPQVSTPTLVEVSR; listed as Homo sapiens) [compound 197]	–	–	59%	59%
223 (YSVVLLLRLAKTYETTLEKCCAAADPHECYAKVF; listed as Homo sapiens) [compound 223]	100%	100%	–	–
226 (LAKYICENQDSISSKLKECCEKPLLEKHCIAEVEN; listed as Homo sapiens) [compound 226]	100%	100%	–	–
208 (AVMDDFAAFVEK; listed as Homo sapiens) [compound 208]	–	–	23%	23%
200 (SLHTLFGDK; listed as Homo sapiens) [compound 200]	–	–	36%	36%
196 (VFDEFKPLVEEPQNLIK; listed as Homo sapiens) [compound 196]	–	–	60%	60%
204 (CCAAADPHECYAK; listed as Homo sapiens) [compound 204]	–	–	32%	32%
195 (KVPQVSTPTLVEVSR; listed as Homo sapiens) [compound 195]	–	–	64%	64%
222 (DKLCTVATLRETYGEM; listed as Homo sapiens) [compound 222]	65%	65%	–	–
210 (QNCELFEQLGEYK; listed as Homo sapiens) [compound 210]	–	–	20%	20%
220 (DETYVPKEFNAETFTHA; listed as Homo sapiens) [compound 220]	86%	86%	–	–
215 (LDELRDEGK; listed as Homo sapiens) [compound 215]	–	–	2%	2%
203 (YLYEIAR; listed as Homo sapiens) [compound 203]	–	–	34%	34%
224 (KLCTVATLRETYGEMADCCAKQEPERNECFLQHK; listed as Homo sapiens) [compound 224]	100%	100%	–	–
198 (RPCFSALEVDETYVPK; listed as Homo sapiens) [compound 198]	–	–	42%	42%
225 (ICTLSEKERQIKKQTALVELVKHKPKATKEQLKAVM; listed as Homo sapiens) [compound 225]	100%	100%	–	–
214 (YICENQDSISSK; listed as Homo sapiens) [compound 214]	–	–	3%	3%

Substance	Percent Absorbed [1, 2]	Percent Absorbed (immune cells; [3])	Percent Absorbed [1, 4]	Percent Absorbed (immune cells; [5])
227 (VFLGMFLYEYARRHPDYSVVLLLRLAKTYETTLEKCCAAA; listed as Homo sapiens) [compound 227]	100%	100%	–	–
206 (CCTESLVNR; listed as Homo sapiens) [compound 206]	–	–	26%	26%
228 (LGEENFKALVLIAFAQYLQQCPFEDHVKLVNEVTEFAKTCVA; listed as Homo sapiens) [compound 228]	100%	100%	–	–
205 (AAFTECCQAADK; listed as Homo sapiens) [compound 205]	–	–	29%	29%
213 (FKDLGEENFK; listed as Homo sapiens) [compound 213]	–	–	8%	8%
221 (DSISSKLKECCEKPLLEKSHCIAEVEN; listed as Homo sapiens) [compound 221]	65%	65%	–	–
229 (RVTKCCTESLVNRRPCFSALEVDETYVPKEFNAETFTFHA; listed as Homo sapiens) [compound 229]	100%	100%	–	–
219 (DRVTKCCTESLVNRRPCFSALEV; listed as Homo sapiens) [compound 219]	87%	87%	–	–
211 (QEPERNECFLQHK; listed as Homo sapiens) [compound 211]	–	–	18%	18%
212 (VHTECCHGDLLECADDR; listed as Homo sapiens) [compound 212]	–	–	13%	13%
216 (DDNPNLPR; listed as Homo sapiens) [compound 216]	–	–	1%	1%
209 (NECFLQHK; listed as Homo sapiens) [compound 209]	–	–	77%	22%
201 (LKECCEKPLLEK; listed as Homo sapiens) [compound 201]	–	–	36%	36%
217 (DHVKLVNEVTEFAKTCVA; listed as Homo sapiens) [compound 217]	100%	100%	–	–
230 (YLSVVLNQLCVLHEKTPVSDRVTKCCCTESLVNRRPFSALEV; listed as Homo sapiens) [compound 230]	37%	37%	–	–
202 (LCTVATLR; listed as Homo sapiens) [compound 202]	–	–	35%	35%
194 (KYLYEIAR; listed as Homo sapiens) [compound 194]	–	–	71%	71%
207 (QEPERNECFLQHK; listed as Homo sapiens) [compound 207]	–	–	25%	25%
